Reference: patent US20220267260A1, “COMPOUNDS CONTAINING A SULFONIC GROUP AS KAT INHIBITORS” (Epizyme, Inc., priority 2016, published 2022)

Assays:
KAT5 = target: T1, KAT5 (Homo sapiens, UniProt Q92993); test: KAT5 enzyme inhibition assay (SAMDI mass spectrometry); format: biochemical; details: His-TEV-FL KAT5-Flag enzyme construct
T1 construct: His-TEV tag (N, cleaved yes); made in house

KAT6A = target: T2, KAT6A (Homo sapiens, UniProt Q92794); test: KAT6A enzyme inhibition assay (SAMDI mass spectrometry); format: biochemical; details: His-TEV-KAT6A 501-784 enzyme construct
T2 construct: His-TEV tag (N, cleaved yes); made in house
T2 sequence (Q92794 with tags, fused parts or gaps): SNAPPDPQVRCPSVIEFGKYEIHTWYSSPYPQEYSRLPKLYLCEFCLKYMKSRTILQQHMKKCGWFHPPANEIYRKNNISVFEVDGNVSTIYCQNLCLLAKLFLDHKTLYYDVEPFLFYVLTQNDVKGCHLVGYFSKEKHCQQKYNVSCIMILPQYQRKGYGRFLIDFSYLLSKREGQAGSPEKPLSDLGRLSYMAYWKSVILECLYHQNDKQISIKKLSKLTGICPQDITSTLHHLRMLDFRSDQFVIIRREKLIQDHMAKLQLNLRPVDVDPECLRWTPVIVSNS

T1 sequence (Q92993 with tags, fused parts or gaps): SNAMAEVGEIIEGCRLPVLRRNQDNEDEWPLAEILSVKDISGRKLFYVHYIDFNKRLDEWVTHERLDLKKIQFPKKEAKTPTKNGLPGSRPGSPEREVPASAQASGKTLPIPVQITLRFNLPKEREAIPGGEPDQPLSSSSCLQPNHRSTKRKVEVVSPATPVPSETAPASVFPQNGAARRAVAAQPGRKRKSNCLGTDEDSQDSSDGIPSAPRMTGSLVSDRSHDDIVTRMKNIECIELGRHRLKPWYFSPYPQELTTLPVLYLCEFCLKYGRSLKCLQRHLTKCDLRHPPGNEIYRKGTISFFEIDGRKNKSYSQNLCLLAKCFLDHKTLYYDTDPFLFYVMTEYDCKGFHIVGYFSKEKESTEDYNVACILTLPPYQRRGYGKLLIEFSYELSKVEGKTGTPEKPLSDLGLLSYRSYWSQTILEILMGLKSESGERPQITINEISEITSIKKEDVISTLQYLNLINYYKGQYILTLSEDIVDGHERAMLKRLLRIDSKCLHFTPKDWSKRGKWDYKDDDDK

Cc1cc(-c2ccccc2)cc(C(=O)NNS(=O)(=O)Cc2cccc(F)c2)c1F [Compound I-83]
IC50 (KAT5): ≤ 10 µM
IC50 (KAT6A): ≤ 10 µM

CNC(=O)Cn1nc(C)cc1C(=O)NNS(=O)(=O)C1CCCCC1 [Compound I-500]
IC50 (KAT5): > 100 µM
IC50 (KAT6A): > 100 µM

Cc1cc(-c2cccc(F)c2)cc(C(=O)NNS(=O)(=O)CC2CCCN(C(=O)C3CCC3)C2)c1F (stereo not drawn) [Compound I-274]
IC50 (KAT5): ≤ 10 µM
IC50 (KAT6A): ≤ 10 µM

COc1cccc(S(=O)(=O)NNC(=O)c2ccccc2F)c1 [Compound I-177]
IC50 (KAT5): > 100 µM
IC50 (KAT6A): 10 to 50 µM

Cc1cc(-c2ccccc2)cc(C(=O)NNS(=O)(=O)CC2CCN(C(=O)OC(C)(C)C)CC2)c1F [Compound I-224]
IC50 (KAT5): ≤ 10 µM
IC50 (KAT6A): ≤ 10 µM

Cc1cc(C2CCN(C)CC2)cc(C(=O)NNS(=O)(=O)C2CCCCC2)c1F [Compound I-338]
IC50 (KAT5): > 100 µM
IC50 (KAT6A): > 100 µM

Cn1ncc2c(C(=O)NNS(=O)(=O)c3ccccc3)cc(-c3ccccc3)cc21 [Compound I-20]
IC50 (KAT5): > 100 µM
IC50 (KAT6A): > 100 µM

Cc1cc(-c2cc(F)cc(F)c2)cc(C(=O)NNS(=O)(=O)C2CCCCC2)c1F [Compound I-317]
IC50 (KAT5): ≤ 10 µM
IC50 (KAT6A): 10 to 50 µM

Cc1cccc(F)c1C(=O)NNS(=O)(=O)CC(Cc1ccccc1)C(C)C (stereo not drawn) [Compound I-266]
IC50 (KAT5): > 100 µM
IC50 (KAT6A): > 100 µM

O=C(NNS(=O)(=O)C1CCCCC1)c1cc(-c2ccccc2)cc(Cl)c1F [Compound I-306]
IC50 (KAT5): ≤ 10 µM
IC50 (KAT6A): ≤ 10 µM

O=C(NNS(=O)(=O)C1CCCCC1)c1c(Cl)ccc(Cl)c1F [Compound I-461]
IC50 (KAT5): > 100 µM
IC50 (KAT6A): > 100 µM

Cc1cc(-c2cc(F)cc(F)c2)cc(C(=O)NNS(=O)(=O)CC2CCCCC2)c1F [Compound I-355]
IC50 (KAT5): 10 to 50 µM
IC50 (KAT6A): 10 to 50 µM

CC(=O)N1CCC(CS(=O)(=O)NNC(=O)c2cc(-c3cccc(F)c3)cc(C)c2F)CC1 [Compound I-388]
IC50 (KAT5): ≤ 10 µM
IC50 (KAT6A): ≤ 10 µM

O=C(NNS(=O)(=O)c1ccccc1)c1ncccn1 [Compound I-189]
IC50 (KAT5): > 100 µM
IC50 (KAT6A): > 100 µM

O=S(=O)(NNc1nc2ccccc2[nH]1)c1ccccc1 [Compound I-12]
IC50 (KAT5): > 100 µM
IC50 (KAT6A): > 100 µM

CNC(=O)c1cccc(-c2cc(C)c(F)c(C(=O)NNS(=O)(=O)C3CCCCC3)c2)c1 [Compound I-458]
IC50 (KAT5): > 100 µM
IC50 (KAT6A): > 100 µM

Cc1cc(-c2ccccc2)cc(C(=O)NNc2ncccn2)c1F [Compound I-309]
IC50 (KAT5): > 100 µM
IC50 (KAT6A): > 100 µM

O=C(NNC(c1ccccc1)C(F)(F)F)c1ccccc1F (stereo not drawn) [Compound I-134]
IC50 (KAT5): > 100 µM
IC50 (KAT6A): > 100 µM

Cc1cccc(S(=O)(=O)NNC(=O)c2c(F)ccc(-c3ccccc3)c2F)c1 [Compound I-155]
IC50 (KAT5): 10 to 50 µM
IC50 (KAT6A): ≤ 10 µM

Cc1cc(-c2cccc(Cl)c2F)cc(C(=O)NNS(=O)(=O)CC2CCCCC2)c1F [Compound I-366]
IC50 (KAT5): 10 to 50 µM
IC50 (KAT6A): 50 to 100 µM

Cc1cc(-c2cccc(F)c2)cc(C(=O)NNS(=O)(=O)CC2CCCN(C(=O)OC(C)(C)C)C2)c1F (stereo not drawn) [Compound I-285]
IC50 (KAT5): ≤ 10 µM
IC50 (KAT6A): ≤ 10 µM

CCC(=O)N1CCCC(S(=O)(=O)NNC(=O)c2cc(-c3ccccc3)cc(C)c2F)C1 (stereo not drawn) [Compound I-110]
IC50 (KAT5): 50 to 100 µM
IC50 (KAT6A): ≤ 10 µM

Cc1cccc(-c2cc(C)c(F)c(C(=O)NNS(=O)(=O)c3ccccc3)c2)c1 [Compound I-326]
IC50 (KAT5): ≤ 10 µM
IC50 (KAT6A): ≤ 10 µM

Cc1cc(-c2cccc(C(=O)N(C)C)c2)cc(C(=O)NNS(=O)(=O)C2CCCCC2)c1F [Compound I-378]
IC50 (KAT5): 50 to 100 µM
IC50 (KAT6A): > 100 µM

O=C(NNS(=O)(=O)C1CCCCC1)c1c(F)ccc(-c2ccccc2)c1F [Compound I-364]
IC50 (KAT5): 50 to 100 µM
IC50 (KAT6A): 50 to 100 µM

Cc1cccc(C(=O)NNS(=O)(=O)Cc2ccccc2)c1F [Compound I-39]
IC50 (KAT5): 10 to 50 µM
IC50 (KAT6A): > 100 µM

CCc1cc(Cl)c(F)c(C(=O)NNS(=O)(=O)CC2CCCCC2)c1 [Compound I-421]
IC50 (KAT5): ≤ 10 µM
IC50 (KAT6A): 10 to 50 µM

COc1cccc(CN2CCC(S(=O)(=O)NNC(=O)c3cc(-c4ccccc4)cc(C)c3F)C2)c1 (stereo not drawn) [Compound I-26]
IC50 (KAT5): ≤ 10 µM
IC50 (KAT6A): ≤ 10 µM

Cc1ccc(-c2csc(NS(=O)(=O)c3cccc(C(=O)O)c3)n2)cc1C [Compound I-520]
IC50 (KAT5): > 100 µM
IC50 (KAT6A): > 100 µM

Cc1cc(-c2ccccc2)cc(C(=O)NNS(=O)(=O)CC2CCCN(C(=O)CCN(C)C)C2)c1F (stereo not drawn) [Compound I-409]
IC50 (KAT5): 10 to 50 µM
IC50 (KAT6A): 10 to 50 µM

Cc1c(-c2ccccc2)ccc(F)c1C(=O)NNS(=O)(=O)c1ccccc1Cl [Compound I-225]
IC50 (KAT5): 50 to 100 µM
IC50 (KAT6A): 10 to 50 µM

COc1ccccc1-c1cc(C)c(F)c(C(=O)NNS(=O)(=O)C2CCCCC2)c1 [Compound I-302]
IC50 (KAT5): 50 to 100 µM
IC50 (KAT6A): 50 to 100 µM

O=C(NNS(=O)(=O)C1CCOCC1)c1cc(-c2cccc(CO)c2)cc(Cl)c1F [Compound I-482]
IC50 (KAT5): 10 to 50 µM
IC50 (KAT6A): 10 to 50 µM
